Tests used:
human MEK4 = human MEK4 (Homo sapiens (Human), UniProt P45985); assay: MEK4 ADP-Glo kinase activity assay (p38α substrate); assay type: biochemical; details: for IC50: p38α substrate, value with 95% confidence interval in brackets, read-out: MEK4-p38, IC50, μM [95% Cl]
MEK3 = MEK3 (Homo sapiens (Human), UniProt P46734); assay: MEK family profiling ADP-Glo, MEK3; assay type: biochemical; details: p38α substrate; 0.6 μM ATP; read-out: IC50 MEK isoform 3
MEK6 = MEK6 (Homo sapiens (Human), UniProt P52564); assay: MEK family profiling ADP-Glo, MEK6; assay type: biochemical; details: p38α substrate; 0.6 μM ATP; read-out: IC50 MEK isoform 6
Sequence of MEK6 (P52564 whole entry, canonical isoform): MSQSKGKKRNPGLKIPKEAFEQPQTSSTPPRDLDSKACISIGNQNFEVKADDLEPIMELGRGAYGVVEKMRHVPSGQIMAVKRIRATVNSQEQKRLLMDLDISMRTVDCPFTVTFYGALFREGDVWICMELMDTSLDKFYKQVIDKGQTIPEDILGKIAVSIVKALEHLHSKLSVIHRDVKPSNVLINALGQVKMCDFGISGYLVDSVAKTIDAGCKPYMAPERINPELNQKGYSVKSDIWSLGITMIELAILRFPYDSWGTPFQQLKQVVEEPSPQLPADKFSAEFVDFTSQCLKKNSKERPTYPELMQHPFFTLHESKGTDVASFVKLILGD

MEK1 = MEK1 (Homo sapiens (Human), UniProt Q02750); assay: MEK family profiling ADP-Glo, MEK1; assay type: biochemical; details: Erk2 substrate; 0.6 μM ATP; read-out: IC50 MEK isoform 1
Sequence of MEK1 (Q02750 whole entry, canonical isoform): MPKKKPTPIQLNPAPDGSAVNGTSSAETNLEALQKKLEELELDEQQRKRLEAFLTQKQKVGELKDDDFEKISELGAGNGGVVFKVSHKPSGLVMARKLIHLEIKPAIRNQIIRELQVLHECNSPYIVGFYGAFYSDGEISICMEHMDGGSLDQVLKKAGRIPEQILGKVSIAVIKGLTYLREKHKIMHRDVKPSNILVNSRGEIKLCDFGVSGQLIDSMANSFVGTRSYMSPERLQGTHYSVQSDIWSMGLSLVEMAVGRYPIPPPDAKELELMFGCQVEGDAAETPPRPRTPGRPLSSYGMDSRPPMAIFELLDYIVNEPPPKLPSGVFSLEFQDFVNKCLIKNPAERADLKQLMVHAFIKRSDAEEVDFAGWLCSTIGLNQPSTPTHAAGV

MEK2 = MEK2 (Homo sapiens (Human), UniProt P36507); assay: MEK family profiling ADP-Glo, MEK2; assay type: biochemical; details: Erk2 substrate; 0.6 μM ATP; read-out: IC50 MEK isoform 2
Sequence of MEK2 (P36507 whole entry, canonical isoform): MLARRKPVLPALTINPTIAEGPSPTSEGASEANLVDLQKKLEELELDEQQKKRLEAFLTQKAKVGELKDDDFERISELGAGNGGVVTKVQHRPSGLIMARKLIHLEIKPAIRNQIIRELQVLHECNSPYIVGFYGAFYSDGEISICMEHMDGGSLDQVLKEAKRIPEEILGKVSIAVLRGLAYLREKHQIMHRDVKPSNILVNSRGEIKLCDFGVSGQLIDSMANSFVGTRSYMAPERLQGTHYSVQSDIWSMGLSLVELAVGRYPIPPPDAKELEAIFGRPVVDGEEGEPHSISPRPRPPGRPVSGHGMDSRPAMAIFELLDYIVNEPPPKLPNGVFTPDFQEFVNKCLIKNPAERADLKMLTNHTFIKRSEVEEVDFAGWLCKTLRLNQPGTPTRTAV

MEK5 = MEK5 (Homo sapiens (Human), UniProt Q13163); assay: MEK family profiling ADP-Glo, MEK5; assay type: biochemical; details: Erk5 substrate; 0.6 μM ATP; read-out: IC50 MEK isoform 5
Sequence of MEK5 (Q13163 whole entry, canonical isoform): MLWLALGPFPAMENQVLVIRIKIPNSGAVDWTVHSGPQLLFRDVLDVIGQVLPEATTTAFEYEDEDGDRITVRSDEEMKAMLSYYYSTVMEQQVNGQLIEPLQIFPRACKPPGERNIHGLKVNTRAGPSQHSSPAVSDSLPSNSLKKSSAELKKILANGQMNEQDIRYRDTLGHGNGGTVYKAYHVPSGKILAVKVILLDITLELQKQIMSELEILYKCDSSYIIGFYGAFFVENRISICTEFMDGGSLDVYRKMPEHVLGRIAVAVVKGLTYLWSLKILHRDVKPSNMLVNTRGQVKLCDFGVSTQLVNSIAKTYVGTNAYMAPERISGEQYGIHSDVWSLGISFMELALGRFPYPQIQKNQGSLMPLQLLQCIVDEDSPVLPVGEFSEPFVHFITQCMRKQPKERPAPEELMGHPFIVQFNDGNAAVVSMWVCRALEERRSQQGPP

PC3M cells = assay: Scratch wound assay; assay type: cell-based

Sequence of MEK3 (P46734 whole entry, canonical isoform): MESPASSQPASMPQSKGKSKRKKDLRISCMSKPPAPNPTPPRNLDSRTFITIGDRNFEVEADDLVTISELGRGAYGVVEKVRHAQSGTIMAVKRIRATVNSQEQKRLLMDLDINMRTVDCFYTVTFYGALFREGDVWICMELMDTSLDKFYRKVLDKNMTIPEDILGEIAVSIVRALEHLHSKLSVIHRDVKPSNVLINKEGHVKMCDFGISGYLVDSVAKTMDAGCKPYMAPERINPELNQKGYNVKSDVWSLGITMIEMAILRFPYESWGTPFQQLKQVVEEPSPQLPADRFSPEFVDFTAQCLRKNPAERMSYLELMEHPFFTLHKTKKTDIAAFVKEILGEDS
Sequence of human MEK4 (P45985 whole entry, canonical isoform): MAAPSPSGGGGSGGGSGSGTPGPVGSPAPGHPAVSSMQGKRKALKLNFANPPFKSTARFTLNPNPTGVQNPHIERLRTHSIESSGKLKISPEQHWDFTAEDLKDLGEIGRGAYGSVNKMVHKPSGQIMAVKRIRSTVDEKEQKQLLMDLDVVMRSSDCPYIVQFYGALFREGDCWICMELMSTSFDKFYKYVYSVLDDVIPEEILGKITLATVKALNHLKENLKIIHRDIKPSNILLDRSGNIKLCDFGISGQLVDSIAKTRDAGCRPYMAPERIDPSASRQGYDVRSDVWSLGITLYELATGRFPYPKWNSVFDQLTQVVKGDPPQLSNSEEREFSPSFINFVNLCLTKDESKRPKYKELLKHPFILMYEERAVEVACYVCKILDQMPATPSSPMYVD

SMILES: CC(C)(O)c1cccc(-c2n[nH]c3cccc(Cl)c23)c1 [Compound 6g, 2-[3-(4-chloro-2H-indazol-3-yl)phenyl]propan-2-ol]
- IC50 (human MEK4): > 22 µM

SMILES: Cc1ccc2[nH]nc(-c3ccc(C(=O)O)cc3)c2c1 [Compound 6s, 4-(5-methyl-2H-indazol-3-yl)benzoic Acid]
- IC50 (MEK3): 12 µM
- IC50 (MEK6): 8.7 µM
- IC50 (MEK1): 17 µM
- IC50 (MEK2): > 27 µM
- IC50 (MEK5): > 27 µM

SMILES: Clc1cccc2[nH]nc(-c3cccnc3)c12 [Compound 6e, 4-chloro-3-(pyridin-3-yl)-2H-indazole]
- IC50 (human MEK4): > 22 µM

SMILES: Cc1ccc2[nH]nc(-c3ccc(F)c(CO)c3)c2c1 [Compound 6o]
- IC50 (MEK3): 6 µM
- IC50 (MEK6): 3.4 µM
- IC50 (MEK1): 4 µM
- IC50 (MEK2): 5.4 µM
- IC50 (MEK5): > 27 µM

SMILES: O=C(O)c1ccc(-c2n[nH]c3ccc(C(F)(F)F)cc23)cc1 [Compound 6n, 4-[5-(trifluoromethyl)-2H-indazol-3-yl]benzoic Acid]
- IC50 (MEK3): 2.9 µM
- IC50 (MEK6): 6 µM
- IC50 (MEK1): 10 µM
- IC50 (MEK2): > 27 µM
- IC50 (MEK5): > 27 µM

SMILES: Cc1ccc2[nH]nc(-c3ccc4c(c3)OCO4)c2c1 [Compound 6p, 3-(2H-1,3-benzodioxol-5-yl)-5-methyl-2H-indazole]
- IC50 (MEK3): 8.5 µM
- IC50 (MEK6): 3.2 µM
- IC50 (MEK1): 6.6 µM
- IC50 (MEK2): 9.1 µM
- IC50 (MEK5): 16 µM

SMILES: COC(=O)c1ccc(-c2n[nH]c3cc(C(F)(F)F)ccc23)cc1 [Compound 6y, methyl 4-[6-(trifluoromethyl)-2H-indazol-3-yl]benzoate]
- MEK4 inhibition (human MEK4; SAR discussion of Table 1): completely inactive
- IC50 (human MEK4): > 20 µM

SMILES: Oc1ccc(-c2n[nH]c3ccc(C(F)(F)F)cc23)cc1 [Compound 6j, 4-[5-(trifluoromethyl)-2H-indazol-3-yl]phenol]
- IC50 (MEK6): 1.6 µM
- IC50 (MEK1): 4.6 µM
- IC50 (MEK2): 5.3 µM
- IC50 (MEK5): > 27 µM

SMILES: O=C(O)c1ccc(-c2n[nH]c3cc(C(F)(F)F)ccc23)cc1 [Compound 6z, 4-[6-(trifluoromethyl)-2H-indazol-3-yl]benzoic Acid]
- IC50 (MEK3): > 27 µM
- IC50 (MEK6): 8.8 µM
- IC50 (MEK1): 17 µM
- IC50 (MEK2): > 27 µM
- IC50 (MEK5): 0.35 µM

SMILES: CC(C)(C)OC(=O)n1nc(-c2ccc(O)cc2)c2cc(C(F)(F)F)ccc21 [Compound 6k, tert-butyl 3-(4-hydroxyphenyl)-5-(trifluoromethyl)-1H-indazole-1-carboxylate]
- IC50 (human MEK4): > 20 µM

SMILES: Fc1ccc2c(-c3ccc4c(c3)OCO4)n[nH]c2c1 [Compound 6ee, 3-(2H-1,3-benzodioxol-5-yl)-6-fluoro-2H-indazole]
- IC50 (MEK3): 21 µM
- IC50 (MEK6): 5.8 µM
- IC50 (MEK1): 6.6 µM
- IC50 (MEK2): 9.3 µM
- efficacy in wound scratch assay (PC3M cells; 10 μM): modest efficacy
- efficacy in wound scratch assay (PC3M cells; 25 μM): performs better
- Percent Difference, DMSO vs. 10 uM inhibitor (PC3M cells; PC3M cells, 10 μM, wound gap 0 vs 20 hrs): 14.93%
- Percent Difference, DMSO vs. 25 uM inhibitor (PC3M cells; PC3M cells, 25 μM, wound gap 0 vs 20 hrs): 32.15%
- IC50 (MEK5): > 27 µM

SMILES: Cc1ccc2[nH]nc(-c3ccc(O)cc3)c2c1 [Compound 6q, 4-(5-methyl-2H-indazol-3-yl)phenol]
- IC50 (MEK6): 2.2 µM
- IC50 (MEK1): 7.7 µM
- IC50 (MEK2): 7.2 µM
- IC50 (MEK5): 25 µM

SMILES: O=c1c(-c2ccc(O)cc2)coc2cc(O)cc(O)c12 [Geni, genistein, reference compound]
- Percent Difference, DMSO vs. Geni (PC3M cells; PC3M cells, genistein 10 μM, wound gap 0 vs 20 hrs): 33.45%

SMILES: Cc1ccc2[nH]nc(-c3ccc(C(N)=O)cc3)c2c1 [Compound 6r, 4-(5-methyl-2H-indazol-3-yl)benzamide]
- IC50 (MEK3): 4.1 µM
- IC50 (MEK6): 2.1 µM
- IC50 (MEK1): 3.9 µM
- IC50 (MEK2): 6.1 µM
- IC50 (MEK5): 19 µM

SMILES: Cc1cccc2[nH]nc(-c3ccc(O)cc3)c12 [Compound 6b]
- IC50 (MEK3): > 27 µM
- IC50 (MEK6): 21 µM
- IC50 (MEK1): 11 µM
- IC50 (MEK2): 15 µM
- IC50 (MEK5): > 27 µM

Reference: patent US11370770B2, “3-arylindazoles as selective MEK4 inhibitors” (priority 2019, dated 2022)
